Patent US7342011B2, “Rifamycin analogs and uses thereof” (priority 2003, dated 2008)
≈ marks a conversion by molar mass, not a printed value.

Tests used:
Type in all cases: cell-based
[1] = tested on: E. coli; experiment: MIC assay, E. coli
[2] = tested on: H. flu; experiment: MIC assay, H. flu
[3] = tested on: S. aureus; experiment: MIC assay, S. aureus
[4] = tested on: E. faecalis; experiment: MIC assay, E. faecalis
[5] = tested on: S. pneumo.; experiment: MIC assay, S. pneumo.

| Compound | MIC (μg/mL) E. coli [1] [µg/mL] | MIC (μg/mL) H. flu [2] [µg/mL] | MIC (μg/mL) S. aureus [3] [µg/mL] | MIC (μg/mL) E. faecalis [4] [µg/mL] | MIC (μg/mL) S. pneumo. [5] [µg/mL] |
| --- | --- | --- | --- | --- | --- |
| CO[C@H]1/C=C/O[C@@]2(C)Oc3c(C)c(O)c4c(=O)c(c5oc6cc(N7CCC(NC(=O)OC(C)(C)C)CC7)cc(O)c6nc-5c4c3C2=O)NC(=O)/C(C)=C\C=C\[C@H](C)[C@H](O)[C@@H](C)[C@@H](O)[C@@H](C)[C@H](OC(C)=O)[C@@H]1C [Compound 48, 3′-hydroxy-5,′-[4-(2,2-dimethylethyl)carbamyl-1-piperidinyl]benzoxazinorifamycin] | >8 | 1 (≈ 1 µM) | 0.008 (≈ 0.00801 µM) | 2 (≈ 2 µM) | 0.00025 (≈ 0.00025 µM) |
| CO[C@H]1/C=C/O[C@@]2(C)Oc3c(C)c(O)c4c(=O)c(c5oc6cc(N7CCC(c8ccccc8)CC7)cc(O)c6nc-5c4c3C2=O)NC(=O)/C(C)=C\C=C\[C@H](C)[C@H](O)[C@@H](C)[C@@H](O)[C@@H](C)[C@H](OC(C)=O)[C@@H]1C [Compound 57, 3′-hydroxy-5′-[4-phenyl-1-piperidinyl]benzoxazinorifamycin] | 8 (≈ 8.33 µM) | 0.5 (≈ 0.521 µM) | 0.008 (≈ 0.00833 µM) | 2 (≈ 2.08 µM) | 0.0005 (≈ 0.000521 µM) |
| CCOC(=O)NC1CCN(c2cc(O)c3nc4c5c6c7c(C)c(O)c5c(=O)c(c-4oc3c2)NC(=O)C(C)=CC=CC(C)C(O)C(C)C(O)C(C)C(O)C(C)C(OC)C=COC(C)(O7)C6=O)CC1 (stereo not shown) [Compound 3, 25-O-deacetyl-3′-hydroxy-5′-(4-ethylcarbamyl-1-piperidinyl)benzoxazinorifamycin] | 4 (≈ 4.31 µM) | 0.25 (≈ 0.269 µM) | 0.03 (≈ 0.0323 µM) | 0.12 (≈ 0.129 µM) | 0.0005 (≈ 0.000538 µM) |
| CO[C@H]1/C=C/O[C@@]2(C)Oc3c(C)c(O)c4c(=O)c(c5oc6cc(N7CCC(NC(=O)SC)CC7)cc(O)c6nc-5c4c3C2=O)NC(=O)/C(C)=C\C=C\[C@H](C)[C@H](O)[C@@H](C)[C@@H](O)[C@@H](C)[C@H](OC(C)=O)[C@@H]1C [Compound 45, 3′-hydroxy-5′-[4-S-methylthiocarbamyl-1-piperidinyl]benzoxazinorifamycin] | 8 (≈ 8.22 µM) | 0.5 (≈ 0.514 µM) | 0.015 (≈ 0.0154 µM) | 4 (≈ 4.11 µM) | 0.001 (≈ 0.00103 µM) |
| CCOC(=O)NCC1CCN(c2cc(O)c3nc4c5c6c7c(C)c(O)c5c(=O)c(c-4oc3c2)NC(=O)/C(C)=C\C=C\[C@H](C)[C@H](O)[C@@H](C)[C@@H](O)[C@@H](C)[C@H](OC(C)=O)[C@H](C)[C@@H](OC)/C=C/O[C@@](C)(O7)C6=O)CC1 [Compound 51, 3′-hydroxy-5′-[4-ethylcarbamylmethyl-1-piperidinyl]benzoxazinorifamycin] | 8 (≈ 8.12 µM) | 0.25 (≈ 0.254 µM) | 0.06 (≈ 0.0609 µM) | 8 (≈ 8.12 µM) | 0.002 (≈ 0.00203 µM) |
| CO[C@H]1/C=C/O[C@@]2(C)Oc3c(C)c(O)c4c(=O)c(c5oc6cc(N7CCC(NC(C)=O)CC7)cc(O)c6nc-5c4c3C2=O)NC(=O)/C(C)=C\C=C\[C@H](C)[C@H](O)[C@@H](C)[C@@H](O)[C@@H](C)[C@H](OC(C)=O)[C@@H]1C [Compound 44] | >8 | 0.25 (≈ 0.266 µM) | 0.06 (≈ 0.0638 µM) | 2 (≈ 2.13 µM) | 0.008 (≈ 0.0085 µM) |
| CO[C@H]1/C=C/O[C@@]2(C)Oc3c(C)c(O)c4c(=O)c(c5sc6cc(N7CCN8CCC[C@H]8C7)ccc6nc-5c4c3C2=O)NC(=O)/C(C)=C\C=C\[C@H](C)[C@H](O)[C@@H](C)[C@@H](O)[C@@H](C)[C@H](OC(C)=O)[C@@H]1C [Compound 76, 5′-[(8aS)octahydropyrrolo[1,2-a]pyrazin-2-yl]benzthiazinorifamycin] | 4 (≈ 4.32 µM) | 0.25 (≈ 0.27 µM) | 0.008 (≈ 0.00865 µM) | 0.5 (≈ 0.54 µM) | 0.00025 (≈ 0.00027 µM) |
| CO[C@H]1/C=C/O[C@@]2(C)Oc3c(C)c(O)c4c(=O)c(c5oc6cc(N7CCC(N)CC7)cc(O)c6nc-5c4c3C2=O)NC(=O)/C(C)=C\C=C\[C@H](C)[C@H](O)[C@@H](C)[C@@H](O)[C@@H](C)[C@H](O)[C@@H]1C [Compound 39, 25-O-deacetyl-3′-hydroxy-5′-[4-amino-1-piperidinyl]benzoxazinorifamycin] | >8 | 0.25 (≈ 0.292 µM) | 0.03 (≈ 0.035 µM) | 2 (≈ 2.33 µM) | 0.001 (≈ 0.00117 µM) |
| CO[C@H]1/C=C/O[C@@]2(C)Oc3c(C)c(O)c4c(=O)c(c5oc6cc(N7CCC(CNC(C)=O)CC7)cc(O)c6nc-5c4c3C2=O)NC(=O)/C(C)=C\C=C\[C@H](C)[C@H](O)[C@@H](C)[C@@H](O)[C@@H](C)[C@H](OC(C)=O)[C@@H]1C [Compound 55, 3′-hydroxy-5′-[4-acetylaminomethyl-1-piperidinyl]benzoxazinorifamycin] | 8 (≈ 8.38 µM) | 0.5 (≈ 0.524 µM) | 0.008 (≈ 0.00838 µM) | 1 (≈ 1.05 µM) | 0.00025 (≈ 0.000262 µM) |
| CO[C@H]1/C=C/O[C@@]2(C)Oc3c(C)c(O)c4c(=O)c(c5oc6cc(N7CCC(C)(N(C)C)CC7)cc(O)c6nc-5c4c3C2=O)NC(=O)/C(C)=C\C=C\[C@H](C)[C@H](O)[C@@H](C)[C@@H](O)[C@@H](C)[C@H](OC(C)=O)[C@@H]1C [Compound 71, 3′-hydroxy-5′-[4-methyl-4-N,N-dimethylamino-1-piperidinyl]benzoxazinorifamycin] | 4 (≈ 4.25 µM) | 0.5 (≈ 0.531 µM) | 0.008 (≈ 0.0085 µM) | 0.25 (≈ 0.266 µM) | 0.00012 (≈ 0.000128 µM) |
| CCCS(=O)(=O)NC1CCN(c2cc(O)c3nc4c5c6c7c(C)c(O)c5c(=O)c(c-4oc3c2)NC(=O)/C(C)=C\C=C\[C@H](C)[C@H](O)[C@@H](C)[C@@H](O)[C@@H](C)[C@H](OC(C)=O)[C@H](C)[C@@H](OC)/C=C/O[C@@](C)(O7)C6=O)CC1 [Compound 35] | 8 (≈ 7.96 µM) | 0.5 (≈ 0.497 µM) | 0.015 (≈ 0.0149 µM) | 4 (≈ 3.98 µM) | 0.00025 (≈ 0.000249 µM) |
